Columns and labels:
Carbonic anhydrase 2 = Carbonic anhydrase 2 (Homo sapiens, UniProt P00918); assay: Inhibition of human carbonic anhydrase 2 after 6 hrs by stop-flow CO2 hydration assay
Carbonic anhydrase 9 = Carbonic anhydrase 9 (Homo sapiens, UniProt Q16790); assay: Inhibition of human carbonic anhydrase 9 after 6 hrs by stop-flow CO2 hydration assay
Carbonic anhydrase 1 = Carbonic anhydrase 1 (Homo sapiens, UniProt P00915); assay: Inhibition of human carbonic anhydrase 1 after 6 hrs by stop-flow CO2 hydration assay
Carbonic anhydrase 12 = Carbonic anhydrase 12 (Homo sapiens, UniProt O43570); assay: Inhibition of human carbonic anhydrase 12 after 6 hrs by stop-flow CO2 hydration assay
Chain of Carbonic anhydrase 12 (O43570 whole entry): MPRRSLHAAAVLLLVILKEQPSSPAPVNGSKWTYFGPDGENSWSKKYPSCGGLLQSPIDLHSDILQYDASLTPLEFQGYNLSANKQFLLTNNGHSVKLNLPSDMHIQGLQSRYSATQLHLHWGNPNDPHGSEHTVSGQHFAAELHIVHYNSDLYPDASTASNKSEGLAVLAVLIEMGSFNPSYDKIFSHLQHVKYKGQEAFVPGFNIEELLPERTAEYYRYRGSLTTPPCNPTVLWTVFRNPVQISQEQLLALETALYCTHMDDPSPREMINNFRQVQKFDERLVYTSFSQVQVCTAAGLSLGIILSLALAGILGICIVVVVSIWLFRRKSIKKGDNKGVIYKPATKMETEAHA

Chain of Carbonic anhydrase 1 (P00915 whole entry): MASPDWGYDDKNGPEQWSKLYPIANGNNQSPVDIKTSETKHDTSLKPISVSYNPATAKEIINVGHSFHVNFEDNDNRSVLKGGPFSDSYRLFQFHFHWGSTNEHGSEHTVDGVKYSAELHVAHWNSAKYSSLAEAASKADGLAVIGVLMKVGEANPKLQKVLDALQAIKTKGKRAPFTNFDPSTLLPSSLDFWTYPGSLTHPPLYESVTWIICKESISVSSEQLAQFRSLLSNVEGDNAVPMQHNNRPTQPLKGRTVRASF

Compound	Ki (Carbonic anhydrase 2) [nM]	Ki (Carbonic anhydrase 9) [nM]	Ki (Carbonic anhydrase 1) [nM]	Ki (Carbonic anhydrase 12) [nM]
CC(C)(C)[Si](C)(C)Oc1ccc2oc(=S)ccc2c1	> 200000	860	–	–
Cc1ccc(S(=O)(=O)OCCOc2ccc3ccc(=O)oc3c2)cc1	> 200000	530	–	–
C=CCOc1ccc2oc(=O)ccc2c1	> 200000	930	–	–
Cc1cc(C)cc(NC(=O)Nc2ccc3c(C)cc(=O)oc3c2)c1	> 200000	–	–	–
CC(C)(C)[Si](C)(C)Oc1ccc2ccc(=S)oc2c1	> 200000	960	–	–
C=CCOc1ccc2oc(=S)ccc2c1	–	3260	–	–
Oc1ccc2ccc(=S)oc2c1	> 200000	780	–	–
O=c1ccc2ccc(OCCO)cc2o1	> 200000	920	–	–
C=CCOc1ccc2ccc(=O)oc2c1 [7-ALLYLOXYCOUMARIN]	> 200000	730	72900	640
CC(C)(C)[Si](C)(C)Oc1ccc2oc(=O)ccc2c1	–	800	–	–
C=CCOc1cc(=S)oc2ccccc12	> 200000	–	–	–
CC(=O)Nc1ccc2c(C)cc(=O)oc2c1	> 200000	390	–	–
C=CCOc1ccc2ccc(=S)oc2c1	> 200000	3230	–	–
O=c1ccc2ccc(OCCF)cc2o1	> 200000	680	–	–
Cc1cc(=O)oc2cc(NC(=O)OC(C)(C)C)ccc12	> 200000	970	–	–
C=CCOc1cc(=O)oc2ccccc12	> 200000	210	–	–
Oc1ccc2oc(=S)ccc2c1	–	800	–	–

From ChEMBL document CHEMBL1955798, “Novel coumarins and 2-thioxo-coumarins as inhibitors of the tumor-associated carbonic anhydrases IX and XII” (Bioorg Med Chem, 2012)
